The text below walks through data of patent US8598084B2, “Synergistic herbicide/insecticide composition containing certain pyridine carboxylic acids and certain insecticides” (priority 2010, dated 2013).

Values joined by “and” are separate entries in the source; they are usually repeats but may differ in a detail not shown here. Equal values may be shown once.

Common to all, as to assay type: in vivo
Data set [1] has as its system Russian thistle (Salsola iberica L; SASKR). Briefly: Postemergence herbicidal activity of mixtures, greenhouse, visual injury vs control. Particulars: for pest or weed control at 35 g/ha: 35 g/ha alone. The method, then: (§1) Evaluation of Postemergence Herbicidal Activity of Mixtures in Cereal Crops
(§2) Seeds of the desired test plant species were planted in Sun Gro MetroMix® 306 planting mixture, which typically has a pH of 6.0 to 6.8 and an organic matter content of about 30 percent, in plastic pots with a surface area of 103.2 square centimeters (cm^2). When required to ensure good germination and healthy plants, a fungicide treatment and/or other chemical or physical treatment was applied. The plants were grown for 7-36 days (d) in a greenhouse with an approximate 14 hour (h) photoperiod which was maintained at about 18° C. during the day and 17° C. during the night. Nutrients and water were added on a regular basis and supplemental lighting was provided with overhead metal halide 1000-Watt lamps as necessary. The plants were employed for testing when they reached the second or third true leaf stage.
(§3) Treatments consisted of an insecticidal compound (as listed in Tables 1 through 18) and the cereal herbicide, 4-amino-3-chloro-6-(4-chloro-2-fluoro-3-methoxyphenyl)pyridine-2-carboxylic acid, alone and in combination. Weighed amounts of esters (methyl) or salts (triethylammonium, TEA) of 4-amino-3-chloro-6-(4-chloro-2-fluoro-3-methoxyphenyl)pyridine-2-carboxylic acid (Compound I) were placed in 25 milliliter (mL) glass vials and dissolved in a volume of 97:3 volume per volume (v/v) acetone/dimethyl sulfoxide (DMSO) to obtain 4.5 milligrams active ingredient per mL (mg ai/mL) concentrated solutions. […] The concentrated solutions of Compound I were diluted to 1.5 mg ai/mL with the addition of 2 volumes of an aqueous mixture containing acetone, water, isopropyl alcohol, DMSO, Agri-dex crop oil concentrate, and Triton® X-77 surfactant in a 64.7:26.0:6.7:2.0:0.7:0.01 v/v ratio. A dilution solution was prepared by mixing 1 volume of 97:3 v/v acetone/DMSO and 2 volumes of an aqueous mixture containing acetone, water, isopropyl alcohol, DMSO, Agri-dex crop oil concentrate, and Triton® X-77 surfactant in a 64.7:26.0:6.7:2.0:0.7:0.01 v/v ratio. Compound requirements are based upon a 12 mL application volume at a rate of 187 liters per hectare (L/ha). The concentrated solutions of the cereal insecticides were prepared following the same procedure. Weighed amounts of insecticide were placed in 25 milliliter (mL) glass vials and dissolved in a volume of 97:3 v/v acetone/DMSO to obtain concentrated insecticide solutions. The concentrated solutions of the safener were prepared following the same procedure. Weighed amounts of safener were placed in 25 mL glass vials and dissolved in a volume of 97:3 v/v acetone/DMSO to obtain concentrated safener solutions. The concentrated solutions were diluted to 0.75 mg/mL with an aqueous mixture of 1.5% v/v of Agri-dex crop oil concentrate.
(§4) Spray solutions of the cereal herbicide and the insecticidal compound mixtures were prepared by adding the concentrated solutions to the appropriate amount of dilution solution to form 12 mL spray solution with active ingredients in combinations. Spray solutions of the cereal herbicide, herbicide safener and the insecticidal compound mixtures were prepared by adding the concentrated solutions to the appropriate amount of dilution solution to form 12 mL spray solution with active ingredients in combinations. Formulated compounds were applied to the plant material with an overhead Mandel track sprayer equipped with 8002E nozzles calibrated to deliver 187 L/ha over an application area of 0.503 square meters (m^2) at a spray height of 18 inches […] above average plant canopy. Control plants were sprayed in the same manner with the solvent blank.
(§5) The treated plants and control plants were placed in a greenhouse as described above and watered by sub-irrigation to prevent wash-off of the test compounds. […]

For data set [2], the system named is bird's-eye speedwell (Veronica persica L; VERPE). The description is as above. The following applies: Veronica persica, post-emergence, read-out: Ob (observed injury); for pest or weed control at 35 g/ha: 35 g/ha alone. The method, then: as §1, §2, §3, §4, §5
Data set [3] has as its system kochia (Kochia scoparia L; KCHSC). Described as above. Particulars: for pest or weed control at 35 g/ha: 35 g/ha alone. The method, then: as §1, §2, §3, §4, §5
Data set [4] deals with wild pansy (Viola tricolor L; VIOTR). The description is as above. The following applies: for pest or weed control at 35 g/ha: 35 g/ha alone. On the procedure:
as §1, §2, §3, §4, §5

Data set [5] concerns barley (Hordeum vulgare L; HORVS). The experiment in a line: Postemergence crop injury and safening, greenhouse, visual injury vs control. The following applies: for Ob (observed injury): 35 g/ha alone, crop injury. The method, then:
as §1, §2, §3, §4, §5

Data set [6] concerns wheat (Triticum aestivum L; TRZAS). The data set is described as above. The following applies: for Ob (observed injury): 35 g/ha alone, crop injury. On the procedure:
as §1, §2, §3, §4, §5

For data set [7], the system named is Canada thistle (Cirsium arvense L; CIRAR). The experiment in a line: Postemergence herbicidal activity of mixtures, greenhouse, visual injury vs control. On the procedure: as §1, §2, §3, §4, §5
Data set [8] deals with redroot pigweed (Amaranthus retroflexus L; AMARE). The data set is described as above. On the procedure: as §1, §2, §3, §4, §5
Data set [9] concerns scented mayweed (Matricaria chamomila L; MATCH). Described as above. On the procedure:
as §1, §2, §3, §4, §5

The mark [10] stands for this setting: Salsola tragus, post-emergence, read-out: Ob (observed injury).
[11] abbreviates: Bassia scoparia, post-emergence, read-out: Ob (observed injury).
The mark [12] stands for this setting: Viola tricolor, post-emergence, read-out: Ob (observed injury).
The mark [13] stands for this setting: application rate g/ha: Compound I methyl ester 35, Malathion 0, Cloquintocet 0.

Consider `COc1c(Cl)ccc(-c2cc(N)c(Cl)c(C(=O)O)n2)c1F` [Compound I Acid, 4-Amino-3-chloro-6-(4-chloro-2-fluoro-3-methoxyphenyl)pyridine-2-carboxylic acid], for which the pest or weed control at 35 g/ha in [1] (setting [10]) was determined as 89%; in [2] it was 72%; in [3] (setting [11]) it was 98%; in [4] (setting [12]) it was 60%. The results for the “Ob (observed injury)” value in data set [5] and in [6] were 15% and 22%, respectively.
Turning to `COC(=O)c1nc(-c2ccc(Cl)c(OC)c2F)cc(N)c1Cl` [Compound I Methyl ester, 4-amino-3-chloro-6-(4-chloro-2-fluoro-3-methoxyphenyl)pyridine-2-carboxylic acid methyl ester], the “Ob (observed injury)” value in [7] (17.5 g/ha alone) is 62%; in [8] (17.5 g/ha alone), 90%; in data set [5], 28% and 32%; in data set [6], 39% and 41%. The pest or weed control at 8.75 g/ha is 71% in data set [1] (Salsola tragus, post-emergence, 8.75 g/ha alone, read-out: Ob (observed injury)); 36% in [2] (8.75 g/ha alone); 79% in [3] (Bassia scoparia, post-emergence, 8.75 g/ha alone, read-out: Ob (observed injury)); 67% in data set [9] (Matricaria, post-emergence, 8.75 g/ha alone, read-out: Ob (observed injury)); 36% in data set [4] (Viola tricolor, post-emergence, 8.75 g/ha alone, read-out: Ob (observed injury)). Moreover, the pest or weed control at 17.5 g/ha is 81% in [1] (Salsola tragus, post-emergence, 17.5 g/ha alone, read-out: Ob (observed injury)); 47% in data set [2] (17.5 g/ha alone); 88% in data set [3] (Bassia scoparia, post-emergence, 17.5 g/ha alone, read-out: Ob (observed injury)); 80% in data set [9] (Matricaria, post-emergence, 17.5 g/ha alone, read-out: Ob (observed injury)); 44% in data set [4] (Viola tricolor, post-emergence, 17.5 g/ha alone, read-out: Ob (observed injury)). The pest or weed control at 35 g/ha in data set [1] (setting [10]) is 89%; in [2], 73%; in data set [3] (setting [11]), 97%; in [9] (Matricaria, post-emergence, 35 g/ha alone, read-out: Ob (observed injury)) it was 88%; in data set [4] (setting [12]), 56%. In addition, in [1] (setting [13]), the “SASKR Ob” value worked out at 89. Besides, the “KCHSC Ob” value in data set [3] (setting [13]) is reported as 97. The “MATCH Ob” value in [9] (setting [13]) turned out to be 88. Moreover, in data set [4] (setting [13]), the “VIOTR Ob” value is recorded as 56. For the same molecule, in [5] (setting [13]), the “HORVS Ob” value came to 32. Moreover, in [6] (setting [13]), the “TRZAS Ob” value worked out at 41.
On to `CC(C)[C@@H](Nc1ccc(C(F)(F)F)cc1Cl)C(=O)OC(C#N)c1cccc(Oc2ccccc2)c1` (stereo partly drawn) [Tau-fluvalinate, cyano(3-phenoxyphenyl)methyl N-[2-chloro-4-(trifluoromethyl)phenyl]-D-valinate, reference compound], for which the “Ob (observed injury)” value in data set [7] (48 g/ha alone) and in data set [8] (48 g/ha alone) was 0% in each case. In addition, the pest or weed control at 48 g/ha in data set [4] (Viola tricolor, post-emergence, 48 g/ha alone, read-out: Ob (observed injury)) is 0%.
